{
  "source": "ChEMBL document CHEMBL1201862",
  "about": "“PubChem BioAssay data set” (2004)",
  "key": {"[1]": {"assay": "microbe, parasite or virus in culture", "assay_type": "functional", "conditions": "Mycobacterium tuberculosis"}, "[2]": {"assay": "Luminescence Cell-Based Dose Retest to Confirm Inhibitors of Cancer Stem Cells. [Related pubchem assays (depositor defined):AID2717, AID2721]", "assay_type": "functional", "conditions": "Homo sapiens"}, "[3]": {"assay": "NIH3T3 cell viability loss – ATP luminescence, mouse fibroblasts, counter-screen, dose response (AID 2010);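 also: cells exposed to compound for about 90 hours before reading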", "assay_type": "functional, cell-based"}, "[4]": {"assay": "Trypanosoma cruzi growth suppression in host cells – NIH3T3 host cells, beta-gal luminescence, confirmation (AID 2044);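 also: luminescent beta-galactosidase reporter signal from transgenic T. cruzi replicating inside host cells; inhibitors lower the luminescence signal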", "assay_type": "functional, cell-based"}, "[5]": {"biological_target": "T1, Short transient receptor potential channel 4 (Mus musculus, UniProt Q9QUQ5)", "T1 sequence (Q9QUQ5 whole entry)": "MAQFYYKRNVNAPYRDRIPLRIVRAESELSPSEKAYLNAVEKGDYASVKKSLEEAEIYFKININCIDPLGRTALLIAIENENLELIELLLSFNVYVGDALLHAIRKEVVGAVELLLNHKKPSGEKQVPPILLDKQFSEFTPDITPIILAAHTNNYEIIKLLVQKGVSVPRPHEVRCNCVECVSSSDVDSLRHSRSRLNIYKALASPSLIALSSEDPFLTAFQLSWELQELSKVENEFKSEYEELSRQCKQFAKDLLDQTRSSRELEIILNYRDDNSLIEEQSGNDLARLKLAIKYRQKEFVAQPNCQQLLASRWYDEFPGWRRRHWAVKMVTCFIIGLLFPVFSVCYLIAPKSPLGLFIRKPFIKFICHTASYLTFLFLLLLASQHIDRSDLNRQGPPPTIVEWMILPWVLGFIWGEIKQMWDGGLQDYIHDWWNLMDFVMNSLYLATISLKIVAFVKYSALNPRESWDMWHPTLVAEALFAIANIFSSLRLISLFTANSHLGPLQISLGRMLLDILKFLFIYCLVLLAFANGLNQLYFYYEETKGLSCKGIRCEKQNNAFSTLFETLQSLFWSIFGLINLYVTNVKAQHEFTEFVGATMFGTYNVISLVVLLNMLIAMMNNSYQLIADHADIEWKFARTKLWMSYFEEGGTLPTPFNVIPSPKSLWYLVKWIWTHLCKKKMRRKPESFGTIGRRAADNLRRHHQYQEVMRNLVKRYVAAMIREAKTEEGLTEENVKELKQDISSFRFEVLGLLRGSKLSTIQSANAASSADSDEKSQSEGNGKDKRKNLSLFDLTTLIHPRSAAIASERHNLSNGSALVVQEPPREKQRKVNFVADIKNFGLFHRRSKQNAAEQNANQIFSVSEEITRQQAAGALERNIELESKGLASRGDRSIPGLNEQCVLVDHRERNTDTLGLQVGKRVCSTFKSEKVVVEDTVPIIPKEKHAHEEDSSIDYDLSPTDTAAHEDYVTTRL", "assay": "block of DAMGO-driven TRPC4 calcium entry – cell-based, HEK293 TRPC4/mu-opioid, Fluo-4 calcium, dose response (AID 434942);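 also: potency of inhibitors blocking the TRPC4 calcium response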", "assay_type": "functional"}, "[6]": {"assay": "HIV-1 Vif–A3G interaction blockers – biochemical, TR-FRET, GST-Vif 1-94, biotin-A3G peptide, dose response retest, primary screen (AID 1117319);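 also: inhibitors lower the FRET signal by blocking Vif and A3G binding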", "assay_type": "functional"}, "[7]": {"assay": "blockers of HIV-1 envelope-mediated cell-cell fusion – cherry-pick, dose response (AID 652057)", "assay_type": "functional, cell-based"}, "[8]": {"assay": "HIV-1 AD8 envelope cell-cell fusion blockers – cherry-pick, dose response (AID 652062);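 also: potency is for inhibitors of fusion seen as a drop in luminescence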", "assay_type": "functional, cell-based"}, "[9]": {"assay": "blockers of HIV-1 ZM109 envelope-driven cell-cell fusion – HeLa effector, CEM target cells, luciferase, cherry-pick, dose response (AID 652058)", "assay_type": "functional, cell-based"}, "[10]": {"assay": "viability loss in CEM21 cells – cell-based, CellTiter-Glo luminescence, cherry-picked, cytotoxicity control for viral fusion inhibitor project, dose response (AID 652042);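 also: potency for signal decrease meaning cytotoxicity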", "assay_type": "functional"}, "[11]": {"biological_target": "T2, Heat shock factor protein 1 (Mus musculus, UniProt P38532)", "T2 sequence (P38532 whole entry)": "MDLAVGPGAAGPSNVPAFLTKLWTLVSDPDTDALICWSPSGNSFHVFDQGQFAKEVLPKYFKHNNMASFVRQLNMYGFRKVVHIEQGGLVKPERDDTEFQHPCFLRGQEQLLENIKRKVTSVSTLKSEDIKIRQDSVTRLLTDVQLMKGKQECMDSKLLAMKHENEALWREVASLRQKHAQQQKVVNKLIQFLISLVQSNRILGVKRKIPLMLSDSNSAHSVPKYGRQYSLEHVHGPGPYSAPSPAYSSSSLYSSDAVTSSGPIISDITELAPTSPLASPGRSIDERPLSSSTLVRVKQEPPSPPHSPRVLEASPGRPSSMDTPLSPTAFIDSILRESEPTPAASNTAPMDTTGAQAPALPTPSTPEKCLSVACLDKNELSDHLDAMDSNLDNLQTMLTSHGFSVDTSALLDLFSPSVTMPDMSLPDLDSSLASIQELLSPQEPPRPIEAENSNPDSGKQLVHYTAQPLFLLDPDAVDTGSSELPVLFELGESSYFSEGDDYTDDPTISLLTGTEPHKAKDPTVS", "assay": "enhancement of HSF1-driven luciferase signal – cell-based, NIH3T3, luminescence, dose retest, confirmation (AID 435004);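 also: stress induced by proteasome inhibitor MG132 added 30 min after compound; actives raise luminescence as potentiators of the MG132 stress response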", "assay_type": "functional"}, "[12]": {"assay": "off-target signal loss in HeLa-CEM21 co-culture – HeLa F-luc CTL cells, cherry-picked, counter-screen for HIV-1 Env fusion inhibitor project, dose response (AID 652040);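 also: potency for signal decrease marking cytotoxic or nonspecific inhibition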", "assay_type": "functional, cell-based"}, "[13]": {"assay": "Luminescence Cell-Based Dose Confirmation HTS to Identify Inhibitors of Platelet Dense Granule Release. [Related pubchem assays: 1663 (Primary HTS), 1678 (Summary of Project)]", "assay_type": "functional"}, "[14]": {"biological_target": "Luciferin 4-monooxygenase (Photinus pyralis, UniProt P08659)", "sequence (P08659 whole entry)": "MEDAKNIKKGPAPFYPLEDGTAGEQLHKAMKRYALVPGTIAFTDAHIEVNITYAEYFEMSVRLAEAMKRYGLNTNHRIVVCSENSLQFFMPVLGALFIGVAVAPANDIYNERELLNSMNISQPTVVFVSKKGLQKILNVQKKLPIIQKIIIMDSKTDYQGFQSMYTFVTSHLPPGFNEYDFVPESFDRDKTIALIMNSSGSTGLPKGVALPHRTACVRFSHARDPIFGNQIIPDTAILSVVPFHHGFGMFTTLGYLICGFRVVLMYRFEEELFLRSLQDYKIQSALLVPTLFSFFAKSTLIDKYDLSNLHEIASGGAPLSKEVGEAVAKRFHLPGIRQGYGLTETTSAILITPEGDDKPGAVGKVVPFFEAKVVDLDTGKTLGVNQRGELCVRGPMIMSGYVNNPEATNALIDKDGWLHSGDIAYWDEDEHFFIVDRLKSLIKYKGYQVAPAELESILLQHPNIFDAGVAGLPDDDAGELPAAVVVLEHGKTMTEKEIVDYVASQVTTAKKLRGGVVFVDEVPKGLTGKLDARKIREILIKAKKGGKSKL", "assay": "inhibition of purified Photinus pyralis luciferase – biochemical, luminescence, dose response (AID 1891)"}, "[15]": {"biological_target": "T3, Acyl-homoserine lactone acylase PvdQ (Pseudomonas aeruginosa (strain LESB58), UniProt Q9I194)", "T3 sequence (Q9I194 whole entry)": "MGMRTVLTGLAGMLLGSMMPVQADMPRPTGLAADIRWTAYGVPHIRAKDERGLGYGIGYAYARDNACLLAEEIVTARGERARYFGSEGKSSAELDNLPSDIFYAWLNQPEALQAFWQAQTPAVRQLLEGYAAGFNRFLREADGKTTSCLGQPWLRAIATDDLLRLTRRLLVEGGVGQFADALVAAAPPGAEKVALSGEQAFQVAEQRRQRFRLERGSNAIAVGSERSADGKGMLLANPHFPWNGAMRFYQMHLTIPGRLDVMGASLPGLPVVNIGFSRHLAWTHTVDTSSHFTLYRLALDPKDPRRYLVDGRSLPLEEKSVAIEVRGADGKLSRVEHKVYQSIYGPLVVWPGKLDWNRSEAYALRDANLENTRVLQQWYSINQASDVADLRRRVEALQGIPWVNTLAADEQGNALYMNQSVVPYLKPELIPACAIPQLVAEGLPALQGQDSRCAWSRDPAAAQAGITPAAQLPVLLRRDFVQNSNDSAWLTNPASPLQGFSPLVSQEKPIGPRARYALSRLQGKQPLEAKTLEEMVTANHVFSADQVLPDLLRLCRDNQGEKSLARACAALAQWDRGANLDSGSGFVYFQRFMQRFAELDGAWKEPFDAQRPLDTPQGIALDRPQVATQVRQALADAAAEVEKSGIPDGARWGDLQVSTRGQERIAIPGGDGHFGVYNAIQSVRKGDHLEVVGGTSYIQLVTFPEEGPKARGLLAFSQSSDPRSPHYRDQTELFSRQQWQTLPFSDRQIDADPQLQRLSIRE", "assay": "PvdQ acylase enzyme activity blockers – biochemical, fluorescence, plate reader and imaging, cherry-picks, dose response (AID 493231)"}},
  "note": "Active and inactive are the calls of the source.",
  "data": [
    {"smiles": "CC(=O)C1=C(C)NC(SCC(=O)c2ccc(F)cc2)=C(C#N)C1c1ccco1", "note": "(stereo unspecified)", "values": [
      {"measurement": "CC50", "setting": "[1]", "value": "39.2 µM (active)"}
    ]},
    {"smiles": "O=S(=O)(c1ccc(Cl)cc1)N1CCC(n2cnc3cc(C(F)(F)F)ccc32)CC1", "values": [
      {"measurement": "AC50", "setting": "[2]", "value": "0.552 µM (active)"},
      {"measurement": "CC50", "setting": "[1]", "value": "> 40 µM (active)"},
      {"measurement": "EC50", "setting": "[3]", "value": "> 60 µM (not active)"},
      {"measurement": "EC50", "setting": "[4]", "value": "2.04 µM (active)"}
    ]},
    {"smiles": "CN1CCN(c2nc(-c3cccnc3)nc3scc(-c4ccccc4)c23)CC1", "values": [
      {"measurement": "EC50", "setting": "[5]", "value": "11.9 µM (active)"}
    ]},
    {"smiles": "O=C1c2ccccc2C(Nc2ccc(F)c(Cl)c2)N1c1ccccn1", "note": "(stereo unspecified)", "values": [
      {"measurement": "IC50", "setting": "[6]", "value": "> 100 µM (active)"}
    ]},
    {"smiles": "Cc1ccc(C(C(=O)NC2CCCCC2)N(C(=O)Cc2c[nH]c3ccccc23)c2ccccc2)o1", "note": "(stereo unspecified)", "values": [
      {"measurement": "AC50", "setting": "[7]", "value": "4.14 µM (active)"},
      {"measurement": "AC50", "setting": "[8]", "value": "6.79 µM (active)"},
      {"measurement": "AC50", "setting": "[9]", "value": "2.63 µM (active)"},
      {"measurement": "AC50", "setting": "[10]", "value": "47.4 µM (active)"},
      {"measurement": "EC50", "setting": "[11]", "value": "> 260 µM (inactive)"},
      {"measurement": "EC50", "setting": "[3]", "value": "> 60 µM (not active)"},
      {"measurement": "AC50", "setting": "[12]", "value": "10.3 µM (active)"},
      {"measurement": "EC50", "setting": "[4]", "value": "1.6 µM (active)"}
    ]},
    {"smiles": "CC(C)(C)c1ccc(C(=O)N2CCN(CCNC(=O)C(=O)NCc3ccc(Cl)cc3)CC2)cc1", "values": [
      {"measurement": "CC50", "setting": "[1]", "value": "> 40 µM (active)"},
      {"measurement": "EC50", "setting": "[3]", "value": "> 30 µM (not active)"},
      {"measurement": "EC50", "setting": "[4]", "value": "3.43 µM (active)"}
    ]},
    {"smiles": "Cc1ccc2nc(-c3ccncc3)cc(-c3ccccc3)c2c1", "values": [
      {"measurement": "CC50", "setting": "[1]", "value": "> 40 µM (active)"}
    ]},
    {"smiles": "O=C(NC(=O)c1ccccc1)Nc1ccccn1", "values": [
      {"measurement": "AC50", "setting": "[7]", "value": "2.44 µM (active)"},
      {"measurement": "AC50", "setting": "[8]", "value": "6.09 µM (active)"},
      {"measurement": "AC50", "setting": "[9]", "value": "37.7 µM (active)"},
      {"measurement": "AC50", "setting": "[10]", "value": "39.1 µM (active)"},
      {"measurement": "EC50", "setting": "[13]", "value": "2.1 µM (active)"},
      {"measurement": "EC50", "setting": "[14]", "value": "4.17 µM (active)"},
      {"measurement": "AC50", "setting": "[12]", "value": "9.35 µM (active)"}
    ]},
    {"smiles": "CCCc1ccc(C2=Nn3c(nnc3C(C)C)SC2)cc1", "values": [
      {"measurement": "CC50", "setting": "[1]", "value": "> 40 µM (active)"}
    ]},
    {"smiles": "CC(C)Oc1ccc(Nc2ncnc3ccccc23)cc1", "values": [
      {"measurement": "AC50", "setting": "[15]", "value": "16.3 µM (active)"}
    ]},
    {"smiles": "O=C1OC(c2ccccc2)c2ccccc21", "note": "(stereo unspecified)", "values": [
      {"measurement": "AC50", "setting": "[15]", "value": "97.9 µM (active)"}
    ]},
    {"smiles": "Cc1ccc2c(c1C)NC(=O)C2(O)CC(=O)c1ccc2c(c1)OCO2", "note": "(stereo unspecified)", "values": [
      {"measurement": "IC50", "setting": "[6]", "value": "> 100 µM (active)"}
    ]},
    {"smiles": "Clc1ccc2scc(CN3CCCCC3)c2c1", "values": [
      {"measurement": "AC50", "setting": "[15]", "value": "9.4 µM (active)"}
    ]}
  ]
}
